Test results: paper PMC2954893, “MHC Class I Bound to an Immunodominant Theileria parva Epitope Demonstrates Unconventional Presentation to T Cell Receptors” (PLoS Pathogens, 2010)

Legend:
[1] = system: responding T cells; conditions: T. parva-immune A18-homozygous animals; cited from earlier work
Description: Several CD8^+ T cell epitopes in T. parva have been identified recently, [17], [18]. […] This allele is expressed alone on the haplotype designated A18, which is common in the British Friesian breed. Although this is not the only single gene class I MHC haplotype in cattle, it remains an unu ...

[2] = system: Tp1_214–224-specific CD8+ T cell clones; test: 4-hour 111Indium release cytotoxicity assay with peptide-pulsed target cells; assay type: cell-based, cattle; conditions: 22 CD8+ T cell clones; example in Fig S6
Description: Twenty-two Tp1_214–224-specific CD8^+ T cell clones, derived from 2 T. parva-immune animals (641 and 633), were examined for their ability to recognize a series of Ala-substituted versions of Tp1_214–224 (as detailed in Fig 1), using a cytotoxicity assay. All clones gave near maximal levels of killing of cells pulsed with the native peptide (ranging from 21% to 100% for different clones) down to a concentration of 10 pg/ml (example shown in Fig S6). The results obtained with the Ala-substituted peptides tested at 1 ng/ml (i.e. well above the minimal concentration required to obtain maximal killing), are summarized in Fig 5. The most striking finding was the abolition (or near abolition) of recognition by all T cell clones of 2 or more of the peptides substituted at positions 6–9. Based on major effects on recognition of peptides substituted at positions 6, 7 and 8, the 22 clones fell into 4 groups each with broadly similar specificity. Nine clones were profoundly influenced by residues 6 and 8, seven clones by residues 7 and 8, four clones by residue 7 and two clones by residue 8. […] Substitutions at positions 3 and 4 also had substantial effects on recognition by some clones.
Figure 5 Effects of single alanine substitutions in the Tp1_214–224 epitope on recognition by specific CD8^+ T cell clones. […]

[3] = system: N*01301; test: RMA-S MHC stabilization assay (peptide binding, pBL50); design: species or system cattle; conditions: RMA-S cells transfected with N*01301; peptides 0.1 nM to 1 mM; surface N*01301 detected with mAb IL-A88 by flow; reference peptide TIMPKDIQL
Method: A 9mer self-peptide (TIMPKDIQL) shown to have a high binding affinity to N*01301 was used throughout as a positive control in flow-based MHC stabilization assays (see Materials and Methods for details). In order to systematically explore the relative contribution to binding affinity made by amino acids at each position, a sequential alanine-scan of the self-peptide was made (Fig. 1A). Dose/FI curves were created for each peptide (using peptides at concentrations between 0.1 nM and 1 mM) and presented as semi-logarithmic plots as in previous studies ([25], supporting information (SI) Fig. S1). The high binders have low half-maximal binding level (BL50) values (high pBL50) and the low binders have high BL50 values (low pBL50). […]
RMA-S is a mouse lymphoma cell line with a deficiency in MHC class I antigen processing which has been used extensively to study binding of peptides to MHC class I [37]. […] Results are expressed as fluorescence index (FI) values. These were calculated as the test mean fluorescence intensity (MFI) minus the no-peptide isotype control MFI divided by the no-peptide N*01301-stained control MFI minus the no-peptide isotype control MFI. The half-maximal binding level (BL50), which is the peptide concentration yielding the half-maximal FI of the reference peptide in each assay, was calculated and presented as pBL50 (–logBL50). […]

Sequence | share of responding T cells specific for the peptide [1] | peptide concentration down to which all clones gave near maximal killing [2] [pg/mL] | binding to N*01301 (pBL50 class) [3]
VGYPKVKEEML [Tp1_214–224] | over 75% | 10 | 
TIMPKDIQL |  |  | high (for high binding >5 (BL50 <10^−5))
